# Columns and labels:
# [1] = tested on: E. coli, strain D31; test: turbidimetric lytic activity against E. coli; assay type: cell-based, Escherichia coli; details: for Specific Lytic Activity: 1 unit = 50% lysis; for specific lytic activity against E. coli compared with immune hemolymph: versus starting material
# Description: (§1) The lytic activity of the P9 proteins against E. coli at each stage of the process can be determined turbidimetrically and the total weight of protein measured. For this purpose, one unit of lytic activity is defined as the amount of factor giving 50% reduction of the absorbance of […] (50% lysis) compared to a control. Log phase E. coli, strain D31 can be centrifuged and suspended in ice-cold 0.1 M phosphate buffer, pH 6.4, to give a density of 30 units on a Klett-Summerson colorimeter (A570 0.3-0.5). A small volume, usually 10 μl, of the sample to be tested is added to 1 ml of bacterial suspension in an ice bath. In the control samples, an equal amount of buffer is substituted. The mixture is incubated (30 minutes at 37° C.) and transferred back to the ice bath during which most of the clearing of the E. coli suspension occurs. Results of such a determination, usually measured within 1 h, are tabulated below in Table 1.
# [2] = tested on: E. coli; test: heat stability in boiling water bath, remaining lytic activity; assay type: physicochemical, Escherichia coli
# Description: FIG. 3 is a graph depicting the effect of heat on the lytic activity of lysozyme and P9 proteins. The filled symbols in the figure indicate a pH of 6.4; the open symbols indicate a pH of 3.2. Activity against E. coli is denoted in the figure by triangles; activity against M. Luteus is denoted by squares.
# The activity against E. coli (triangles) is compared in FIG. 3 to the activity against M. luteus (squares). The former activity is associated with the P9 proteins and the latter with the lysozyme.
# [3] = tested on: Escherichia coli K12, D21f2; test: anti-bacterial specificity, killing time; assay type: cell-based; details: time required for killing 90% of the bacteria; 3 x 10^6 cells/ml
# Description: (§2) The lysis of E. coli is believed to be due to at least two very similar small and basic proteins designated P9A and P9B. The P9 proteins are active against gram negative bacteria such as E. coli K12 strain D21f2, E. coli K12 strain D21, E. coli K12 strain D31, Enterobacter cloacae, β11, Pseudomonas aeruginosa, OT97, and Serratia marcescens, Db1108 but not S. marcescens Db11. The E. coli K12, strain D31 is a penicillin and streptomycin resistant mutant with a defective lipopolysaccharide. S. marcescens Db11 is a streptomycin resistant mutant derived from a parental strain, pathologic for Drosophila. S. marcescens Db1108 is a spontaneous phage resistant mutant of Db11. The bacterial strains are discussed in Boman, H. G., Nilsson-Faye, I., Paul, K. & Rasmuson, T. (1974) Infect. Immun. 10, 136-145; Monner, D. A., Jonsson, S. & Boman, H. G. (1971) J. Bacteriol. 107, 420-432; and Boman, H. G. & Monner, D. A. (1975) J. Bacteriol. 121, 455-464.
# (§3) The anti-bacterial specificity of P9 proteins was determined for gram negative bacteria. Killing time shown in Table 4 is the time required for killing 90% of the bacteria. […] It is also clear that the heptose-less mutant E. coli D21f2 and S. marcescens Db1108 both were more sensitive to P9 proteins than their respective parental strains, D21 and Db11.
# [4] = tested on: Escherichia coli K12, D21; test: anti-bacterial specificity, killing time; assay type: cell-based; details: time required for killing 90% of the bacteria; 4 x 10^6 cells/ml
# Description: as §2, §3
# [5] = tested on: Pseudomonas aeruginosa, OT97; test: anti-bacterial specificity, killing time; assay type: cell-based; details: time required for killing 90% of the bacteria; 4 x 10^6 cells/ml
# Description: as §2, §3
# [6] = tested on: Serratia marcescens, Db1108; test: anti-bacterial specificity, killing time; assay type: cell-based; details: time required for killing 90% of the bacteria; 3 x 10^6 cells/ml
# Description: as §2, §3
# [7] = tested on: Enterobacter cloacae, β11; test: anti-bacterial specificity, killing time; assay type: cell-based; details: time required for killing 90% of the bacteria; 3 x 10^6 cells/ml
# Description: as §2, §3
# [8] = tested on: Serratia marcescens, Db11; test: anti-bacterial specificity, killing time; assay type: cell-based; details: time required for killing 90% of the bacteria; 3 x 10^6 cells/ml
# Description: as §2, §3
# [9] = tested on: E. coli; test: influence of anions on lytic activity of P9 proteins; assay type: cell-based, Escherichia coli; details: 0.045 M MES-buffer, pH 6.3
# Description: as §1, with “Log phase E. coli, strain D31 can be centrifuged and suspended in ice-cold 0.1 M phosphate buffer, pH 6.4, to give a density of 30 units on a Klett-Summerson colorimeter (A570 0.3-0.5).” left out
# The effects of sulfate or phosphate ions are hardly significant. The presence of acetate and formate buffers during the chromatography sequences until their removal by freeze-drying should be taken into account in interpreting the recovery data for protein P9 B in Table 1.
# [10] = tested on: E. coli D31; test: simultaneous decrease of absorbance at 570 nm and viable count; assay type: cell-based, Escherichia coli; details: eight units per ml, 1 min
# Description: For E. coli D31 the effect of P9 proteins can be observed by simultaneously following the decrease in the absorbance at 570 nm and the viable count of E. coli. Eight units of protein P9 B per ml in 1 min gave a reduction of viable count from 10^8 to <10^5 while the absorbance dropped 14%.
# [11] = fraction after Step 1 of chromatography
# [12] = added salt: Ammonium formate, ionic strength 0.15 M
# [13] = added salt: None, ionic strength 0.15 M with sodium chloride
# [14] = added salt: Sodium acetate, ionic strength 0.15 M
# [15] = added salt: Sodium phosphate, ionic strength 0.15 M
# [16] = added salt: Sodium sulfate, ionic strength 0.15 M
Substance,Specific Lytic Activity ([1]; after Step 2 and freeze-drying),"Specific Lytic Activity [1, 11]",specific lytic activity against E. coli compared with immune hemolymph [1],heat stability in words [2],Killing Time [3],Killing Time [4],Killing Time [5],Killing Time [6],Killing Time [7],Killing Time [8],"Relative Activity [9, 12]","Relative Activity [9, 13]","Relative Activity [9, 14]","Relative Activity [9, 15]","Relative Activity [9, 16]",drop of absorbance at 570 nm [10],viable count after treatment ([10]; reduction from 10^8),"increase in activity ([9]; acetate or formate ions, ionic strength 0.15 M with sodium chloride)"
N-LYS-TRP-LYS-LEU-PHE-LYS-LYS-ILE-GLU-LYS-VAL-GLY-GLN-ASN-ILE-ARG-ASP-GLY- ILE-ILE-LYS-ALA-GLY-PRO-ALA-VAL-ALA-VAL-VAL-GLY-GLN-ALA-THR-C (KWKLFKKIEKVGQNIRDGIIKAGPAVAVVGQAT; printed: LYS-TRP-LYS-LEU-PHE-LYS-LYS-ILE-GLU-LYS-VAL-GLY-GLN-ASN-ILE-ARG-ASP-GLY- ILE-ILE-LYS-ALA-GLY-PRO-ALA-VAL-ALA-VAL-VAL-GLY-GLN-ALA-THR-) [P9 A],5.6 Units/μg of protein,4.4 Units/μg of protein,substantially greater,heat stable,< 0.25 min,0.60 min,10 min,48 min,12 min,> 120 min,1.3,1.0,0.9,0.8,0.6,–,–,–
N-LYS-TRP-LYS-VAL-(MET)-ILE-(PHE)-LYS-LYS-ILE-(PHE)-GLU-LYS- -GLY-ARG-ASN-ILE-(PHE)-ARG-ASN-(LYS)-GLY- [P9 B],1.9 Units/μg of protein,5.3 Units/μg of protein,substantially greater,heat stable,< 0.25 min,1 min,5 min,115 min,15 min,> 120 min,4.5,1.0,4.1,1.3,1.2,14%,< 10^5,four-fold increase
